Results: patent US20250002955A1, “Method for Promoting Production of Exopolysaccharide by Bifidobacterium Bacteria” (TOHOKU UNIVERSITY, priority 2021, published 2025)

Key:
Format in all cases: cell-based
[1] = test system: Bifidobacterium breve AT-APC-FucE1 strain; experiment: Influence of presence or absence of L-fucose in culture medium on EPS production amount by AT-APC-FucE1 strain; settings: 0.5% sugar in mMRS culture medium, anaerobic, 37° C., 96 hours
Experimental: The 0.5% Glu mMRS culture medium was inoculated with the AT-APC-FucE1 strain, and pre-culturing was implemented anaerobically at 37° C. for 24 hours. An amount of 100 μL of the pre-cultured culture solution was inoculated into each of a 0.5% Fuc mMRS culture medium (mMRS liquid culture medium comprising 0.5 wt. % of L-fucose) and a 0.5% Glu mMRS culture medium, and then cultured anaerobically at 37° C. for 96 hours.
The amount of crude EPS extracted from the supernatant of each culture solution was approximately the same (13.33 mg/1000 mL). However, when the amount of protein in these crude EPS samples was measured, and the amount of protein was subtracted from the amount of crude EPS, the amount of EPS produced in the culture medium that used D-glucose (that is, the 0.5% Glu mMRS culture medium) was 9.34 mg/1000 mL, whereas the amount of EPS produced in the culture medium that used L-fucose (that is, the 0.5% Fuc mMRS culture medium) was 13.14 mg/1000 mL.

[2] = test system: Bifidobacterium animalis subsp. lactis JCM10602 strain; experiment: Induction of EPS production by L-fucose in JCM10602 strain; settings: anaerobic, 37° C.; for amount of EPS produced, extracted with ethanol / amount of EPS produced, extracted with trichloracetic acid: 0.5% sugar in mMRS culture medium, 96 hours, culture supernatant
Experimental: In order to confirm whether the production of EPS is induced by L-fucose in other bacteria of the genus Bifidobacterium, the following test was carried out using the JCM10602 strain and the JCM1192 strain.
(§1) Note that the JCM10602 strain is Bifidobacterium animalis subsp. lactis (i.e., Bifidobacterium lactis), which is frequently used as a probiotic and is known to produce EPS at a high level, and the JCM1192 strain is a standard strain of Bifidobacterium breve, which is the same species as AT-APC-FucE1.
The JCM10602 strain was anaerobically cultured in a 0.5% Fuc mMRS culture medium and in a 0.5% Glu mMRS culture medium at 37° C. for 96 hours by the method described in Test 3 above.
When the EPS extracted from the culture supernatant was assayed, the amount of EPS produced in the culture medium using D-glucose (that is, the 0.5% Glu mMRS culture medium) was 132.97 mg/1000 mL (when extracted with trichloracetic acid) and 4.74 mg/1000 mL (when extracted with ethanol), whereas the amount of EPS produced in the culture medium using L-fucose (that is, the 0.5% Fuc mMRS culture medium) was 166.2 mg/1000 mL (when extracted with trichloracetic acid) and 13.33 mg/1000 mL (when extracted with ethanol).

[3] = test system: Bifidobacterium breve AT-APC-FucE1 strain; experiment: Confirmation of EPS production through culturing of AT-APC-FucE1 strain (transmission electron microscope); settings: 1% Fuc mMRS culture medium vs 1% Glu mMRS culture medium, anaerobic, 37° C., 12 hours, transmission electron microscope (FIGS. 4 and 5)
Description: An mMRS liquid culture medium comprising 0.5 wt. % and an mMRS liquid culture medium comprising 1 wt. % of D-glucose (hereinafter, the respective mMRS liquid culture mediums are also referred to as a “0.5% Glu mMRS culture medium” and a “1% Glu mMRS culture medium”, respectively) (composition: 10 g/L of beef extract, 5 g/L of yeast extract, 2 g/L of ammonium citrate, 5 g/L of sodium acetate, 0.1 g/L of magnesium sulfate, 0.05 g/L of manganese sulfate, 2 g/L of dipotassium hydrogen phosphate, 0.5 g/L of L-cysteine hydrochloride, and 0.5% or 1% D-glucose) were prepared. The 0.5% Glu mMRS culture medium was inoculated with the AT-APC-FucE1 strain, and pre-culturing was implemented anaerobically at 37° C. for 24 hours.
The 1% Fuc mMRS culture medium was then inoculated with 100 μL of the pre-cultured culture solution, and anaerobic culturing was carried out at 37° C. The AT-APC-FucE1 strain was collected from the culture solution that had been cultured for 12 hours, after which the bacterial cells were washed with phosphate-buffered saline (PBS), and subsequently, the bacterial cells were immobilized on a membrane, and the EPS production by the bacterial cells was confirmed using a transmission electron microscope. […]

[4] = test system: Bifidobacterium breve JCM1192 strain; experiment: Induction of EPS production by L-fucose in JCM1192 strain; settings: JCM1192, standard strain of Bifidobacterium breve
Experimental: as §1, with “In order to confirm whether the production of EPS is induced by L-fucose in other bacteria of the genus Bifidobacterium, the following test was carried out using the JCM10602 strain and the JCM1192 strain. Note” for “Note”

| SMILES | amount of EPS produced (amount of protein subtracted from amount of crude EPS) [1] [mg/1000 mL] | amount of crude EPS extracted from the supernatant of culture solution [1] [mg/1000 mL] | amount of EPS produced, extracted with ethanol [2] [mg/1000 mL] | amount of EPS produced, extracted with trichloracetic acid [2] [mg/1000 mL] | EPS production by the bacterial cells [3] | induction of EPS production [4] | production of EPS (electron microscope observation) ([2]; 0.5% Fuc mMRS vs 0.5% Glu mMRS culture medium, 96 hours (FIG. 7)) |
| --- | --- | --- | --- | --- | --- | --- | --- |
| O=C[C@H](O)[C@@H](O)[C@H](O)[C@H](O)CO [D-glucose, reference compound] | 9.34 | ~13.33 | 4.74 | 132.97 |  |  |  |
| C[C@H](O)[C@@H](O)[C@@H](O)[C@H](O)C=O [L-fucose] | 13.14 | ~13.33 | 13.33 | 166.2 | remarkably promoted | significant production induction by L-fucose was not confirmed | improved |
